Counter-ions that a name gives are not always drawn.
Key:
[1] = biological target: T1, serotonin 5-HT1A receptor (Rattus norvegicus, UniProt P19327); experiment: Displacement of [3H]-8-OH-DPAT from 5-HT1A receptor in rat hippocampal membrane homogenates; type: binding; conditions: [3H]-8-OH-DPAT displacement, read-out: 5-HT1A Affinity (IC50)
T1 construct: in rat hippocampal membrane homogenates; from tissue; host or cells: rat hippocampus (membrane homogenates)
T1 sequence (P19327 1-422): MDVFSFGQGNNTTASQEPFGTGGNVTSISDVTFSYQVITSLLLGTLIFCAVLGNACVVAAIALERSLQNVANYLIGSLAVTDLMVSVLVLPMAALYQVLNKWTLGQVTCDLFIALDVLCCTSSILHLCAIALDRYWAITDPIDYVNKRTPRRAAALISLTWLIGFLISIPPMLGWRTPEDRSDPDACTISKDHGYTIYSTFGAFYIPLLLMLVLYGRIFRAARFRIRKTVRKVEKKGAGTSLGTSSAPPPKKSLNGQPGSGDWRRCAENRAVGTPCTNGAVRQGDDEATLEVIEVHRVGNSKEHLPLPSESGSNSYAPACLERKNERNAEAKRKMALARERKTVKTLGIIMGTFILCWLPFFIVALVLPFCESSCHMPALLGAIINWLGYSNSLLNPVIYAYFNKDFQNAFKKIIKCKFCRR
From the text: Affinity for the serotonin 5-HT1A receptor was established by assaying the test compound's ability to displace [^3H]-8-OH-DPAT from its binding site on the receptor complex in rat hippocampal membrane homogenates according to the method described in U.S. Pat. No. 5,482,940.

human 5-HT1A receptor [2] = biological target: T2, human 5-HT1A receptor (Homo sapiens, UniProt P08908); experiment: Block of 8-OH-DPAT-induced stimulation of [35S]-GTPγS binding (5-HT1A antagonist activity) in CHO cells stably transfected with human 5-HT1A receptor; type: biochemical; conditions: block of 8-OH-DPAT-induced [35S]-GTPγS binding
T2 construct: expressed in transfected cells; host or cells: CHO cells, stably transfected
T2 sequence (P08908 1-422): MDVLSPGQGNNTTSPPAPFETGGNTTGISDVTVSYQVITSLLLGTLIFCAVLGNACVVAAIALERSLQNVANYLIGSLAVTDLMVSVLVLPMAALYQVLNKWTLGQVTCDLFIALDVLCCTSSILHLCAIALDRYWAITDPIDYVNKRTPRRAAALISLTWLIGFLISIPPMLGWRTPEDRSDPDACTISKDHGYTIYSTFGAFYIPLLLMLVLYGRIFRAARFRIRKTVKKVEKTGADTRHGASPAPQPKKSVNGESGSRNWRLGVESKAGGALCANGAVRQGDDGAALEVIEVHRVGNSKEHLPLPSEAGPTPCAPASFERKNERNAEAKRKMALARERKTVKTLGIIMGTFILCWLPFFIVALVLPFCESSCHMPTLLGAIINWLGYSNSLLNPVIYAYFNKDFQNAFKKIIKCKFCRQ

human 5-HT1A receptor [3] = biological target: T2, human 5-HT1A receptor; experiment: Stimulation of [35S]-GTPγS binding (5-HT1A agonist activity) in CHO cells stably transfected with human 5-HT1A receptor; type: biochemical; conditions: for 5-HT1A Agonist Activity (GTPγS) % Agonist Activity: relative to the effect of the 5-HT1A full agonist 8-OH-DPAT
From the text: Data are presented as the percent of
agonist activity observed relative to the effect obtained with the 5-HT1A full agonist 8-OH-DPAT and the corresponding EC50 value.

Row | SMILES | melting point | IC50 [1] | EC50 (human 5-HT1A receptor [3]) | 5-HT1A Agonist Activity (GTPγS) % Agonist Activity (human 5-HT1A receptor [3]) | further results
1 | O=C(N[C@H](Cc1ccccc1)CN1CCN(Cc2ccccc2)CC1)C12CC3CC(CC(C3)C1)C2 (as salt: hydrochloride) (hydrate or solvate) [Example 1, (R)-N-[1-(Phenylmethyl)-2-[4-(phenylmethyl)-1-piperazinyl]ethyl]tricyclo[3.3.1.1^3,7)]-decane-1-carboxamide Dihydrochloride Dihydrate] | 261 to 263 °C | – | – | – | –
2 | O=C(N[C@@H](Cc1ccccc1)CN1CCN(Cc2ccccc2)CC1)C12CC3CC(CC(C3)C1)C2 (as salt: hydrochloride) (hydrate or solvate) [Example 2, (S)-N-[1-(Phenylmethyl)-2-[4-(phenylmethyl)-1-piperazinyl]ethyl]tricyclo[3.3.1.1^3,7)]-decane-1-carboxamide Dihydrochloride Dihydrate] | 263 to 266 °C | – | – | – | –
3 | O=C(N[C@H](Cc1ccccc1)CN1CCN(c2ncccn2)CC1)C12CC3CC(CC(C3)C1)C2 (hydrate or solvate) [Example 3, (R)-N-[1-(Phenylmethyl)-2-[4-(2-pyrimidinyl)-1-piperazinyl]ethyl]tricyclo[3.3.1.1^3,7)]-decane-1-carboxamide Hemihydrate] | 172 to 175 °C | – | – | – | –
4 | O=C(N[C@H](Cc1ccccc1)CN1CCN(Cc2ccccc2)CC1)C12CC3CC(CC(C3)C1)C2 [Example 1, (R)-N-[1-(Phenylmethyl)-2-[4-(phenylmethyl)-1-piperazinyl]ethyl]tricyclo[3.3.1.1^3,7)]-decane-1-carboxamide Dihydrochloride Dihydrate] | – | 2.3 nM | – | – | 5-HT1A Antagonist Activity (GTPγS) % Antagonist Activity (human 5-HT1A receptor [2]): 100%; EC50 (human 5-HT1A receptor [2]): 36 nM
5 | O=C(N[C@@H](Cc1ccccc1)CN1CCN(Cc2ccccc2)CC1)C12CC3CC(CC(C3)C1)C2 [Example 2, (S)-N-[1-(Phenylmethyl)-2-[4-(phenylmethyl)-1-piperazinyl]ethyl]tricyclo[3.3.1.1^3,7)]-decane-1-carboxamide Dihydrochloride Dihydrate] | – | 0.7 nM | 21 nM | 51% | –
6 | O=C(N[C@H](Cc1ccccc1)CN1CCN(c2ncccn2)CC1)C12CC3CC(CC(C3)C1)C2 [Example 3, (R)-N-[1-(Phenylmethyl)-2-[4-(2-pyrimidinyl)-1-piperazinyl]ethyl]tricyclo[3.3.1.1^3,7)]-decane-1-carboxamide Hemihydrate] | – | 0.43 nM | 2 nM | 100% | –
7 | O=C(N[C@@H](Cc1ccccc1)CN1CCN(c2ncccn2)CC1)C12CC3CC(CC(C3)C1)C2 [Example 4] | 172 to 175 °C | 1 nM | 2.4 nM | 99% | –
8 | Cl.Cl.O.O.O=C(N[C@@H](COCc1ccccc1)CN1CCN(Cc2ccccc2)CC1)C12CC3CC(CC(C3)C1)C2 [Example 5, (R)-N-[1-((Phenylmethoxy)methyl)-2-[4-(phenylmethyl)-1-piperazinyl]ethyl]tricyclo-[3.3.1.1^3,7)]-decane-1-carboxamide Dihydrochloride Dihydrate] | – | 62 nM | 77 nM | – | –
9 | Cl.Cl.O.O.O=C(N[C@@H](COCc1ccccc1)CN1CCN(Cc2ccccc2)CC1)C12CC3CC(CC(C3)C1)C2 [Example 5] | – | – | – | 49% | –
10 | COc1ccccc1N1CCN(C[C@@H](Cc2ccccc2)NC(=O)C23CC4CC(CC(C4)C2)C3)CC1.COc1ccccc1N1CCN(C[C@@H](Cc2ccccc2)NC(=O)C23CC4CC(CC(C4)C2)C3)CC1.O.O=C(O)/C=C/C(=O)O [Example 6, (R)-Adamantane-1-carboxylic acid [1-(phenylmethyl)-2-[4-(2-methoxyphenyl)-piperazinyl]ethyl]-amide Hemifumarate Hemihydrate] | – | 0.21 nM | – | 76% | –
11 | COc1ccccc1N1CCN(C[C@H](Cc2ccccc2)NC(=O)C23CC4CC(CC(C4)C2)C3)CC1.COc1ccccc1N1CCN(C[C@H](Cc2ccccc2)NC(=O)C23CC4CC(CC(C4)C2)C3)CC1.O.O.O=C(O)/C=C/C(=O)O [Example 7, (S)-Adamantane-1-carboxylic acid [1-(phenylmethyl)-2-[4-(2-methoxyphenyl)-piperazinyl]ethyl]-amide Hemifumarate Hydrate] | – | 0.7 nM | – | 85% | –
